In the NIST ThermoML archive (doi:10.1007/s10765-011-0939-5):
± gives the expanded uncertainty stated by the source.

Conditions: Crystal; triple pt. cell

Triple point temperature [K] | Compound
24.69 ± 8e-05 | [22Ne] [neon-22]
24.54 ± 8e-05 | [20Ne] [neon-20]
